This passage reports mortality results from patent publication US12419307B2, “Mixtures comprising indazole pesticides” (FMC Corporation, priority 2019, dated 2025).

Read-outs that look alike come from different tables or passages of the source.

In assay [1] the test system is cotton melon aphid (Aphis gossypii Glover). Put plainly: Test D: cotton melon aphid control on okra plants, insect mortality after 6 days. The class given is in vivo. The conditions noted are these: Aphis gossypii, read-out: % Mortality (obs). The procedure: The analysis of enhanced activity between the mixtures or compositions was determined using Colby's equation. The average % mortality data for the test compounds alone were inserted into the Colby's equation. If the observed (obs) average % mortality was higher than “p”, the expected (exp) % mortality, the mixture or composition had enhanced effects. If the observed average % mortality was equal to or lower than the expected mortality, the mixture or composition either had no enhanced effect. For bioassays where insect feeding damage was evaluated, enhanced activity is identified when the observed plant damage is less than the expected plant damage rating; ratings ranged between 0 (no damage) and 10 (dead plant) and each value was converted to a % plant protection. 100−(Obs Plant Damage*10)
For evaluating control of cotton melon aphid (Aphis gossypii Glover) through contact and/or systemic means, each test unit consisted of a small open container with a 6- to 7-day-old okra plant inside. This was pre-infested by placing on a leaf of the test plant 30 to 40 aphids on a piece of leaf excised from a culture plant (cut-leaf method). The […] moved onto the test plant as the leaf piece desiccated. After pre-infestation, the soil of the test unit was covered with a layer of sand.
Test compounds were formulated and sprayed as described for Test A. The applications were replicated three times. After spraying of the formulated test compounds, each test unit was allowed to dry for 1 hour and then a black, screened cap was placed on top. […]

The test system of assay [2] is corn planthopper (Peregrinus maidis (Ashmead)). As to the kind of experiment: Test C: corn planthopper control on corn plants, insect mortality after 6 days. It is filed as in vivo. The conditions noted are these: Peregrinus maidis, read-out: % Mortality (obs). How it is done: The pest control protection afforded by the mixtures or compositions is not limited, however, to these species. The analysis of enhanced activity between the mixtures or compositions was determined using Colby's equation. The average % mortality data for the test compounds alone were inserted into the Colby's equation. If the observed (obs) average % mortality was higher than “p”, the expected (exp) % mortality, the mixture or composition had enhanced effects. If the observed average % mortality was equal to or lower than the expected mortality, the mixture or composition either had no enhanced effect. For bioassays where insect feeding damage was evaluated, enhanced activity is identified when the observed plant damage is less than the expected plant damage rating; ratings ranged between 0 (no damage) and 10 (dead plant) and each value was converted to a % plant protection. 100−(Obs Plant Damage*10)
For evaluating control of corn planthopper (Peregrinus maidis (Ashmead)) through contact and/or systemic means, the test unit consisted of a small open container with a 3-4-day-old corn (maize) plant inside. White sand was added to the top of the soil prior to application of the test compound.
Test compounds were formulated and sprayed at 250 and/or 50 ppm and/or 10 ppm. After spraying of the formulated test compound, the test units were allowed to dry for 1 h before they were post-infested with ˜15-20 nymphs (18-to-21-day-old). […]

For the compound `CSCC(C)(C)NC(=O)c1ccc(F)c2nn(-c3cccnc3)cc12` [Cpd 1, N-[1,1-dimethyl-2-(methylthio)ethyl]-7-fluoro-2-(3-pyridinyl)-2H-indazole-4-carboxamide], the mortality at 0.08 ppm worked out at 37.3% in assay [1] (5 h, Table 5h); 23.8% in assay [1] (120 h, Table 5d); 23.8% in assay [1] (Table 5a); 23.8% in assay [1] (Table 5b); 100% in assay [1] (Table 5c); 21.3% in assay [1] (Table 5e). Besides, the values for the mortality at 0.08 ppm in assay [1] (Table 5f) and in assay [1] (Table 5g) were 20.8% and 29.1%, respectively. The mortality at 0.12 ppm in assay [1] (5 h, Table 5h) worked out at 50.5%; in assay [1] (120 h, Table 5d), 49.8%; in assay [1] (Table 5a), 49.8%; in assay [1] (Table 5b) it was 49.8%; in assay [1] (Table 5c), 26.7%; in assay [1] (Table 5e) it was 35.3%. For the same compound, the mortality at 0.12 ppm was 39.4% in assay [1] (Table 5f) and 35.9% in assay [1] (Table 5g). Besides, the mortality at 50 ppm in assay [2] (96 h, Table 4d) was found to be 14.8%; in assay [2] (Table 4e) it was 18.9%. Further, the mortality at 250 ppm in assay [2] (96 h, Table 4d) was 45.8%; in assay [2] (Table 4e), 7.6%.
With `C[S+]([O-])CC(C)(C)NC(=O)c1ccc(F)c2nn(-c3cccnc3)cc12` (stereo not drawn) [Cpd 2, N-[1,1-dimethyl-2-(methylsulfinyl)ethyl]-7-fluoro-2-(3-pyridinyl)-2H-indazole-4-carboxamide], the mortality at 0.05 ppm stood at 43.9% in assay [1] (5 h, Table 5h); 40.1% in assay [1] (120 h, Table 5d); 40.1% in assay [1] (Table 5a); 40.1% in assay [1] (Table 5b); 0% in assay [1] (Table 5c); 16.3% in assay [1] (Table 5e). Also, the figures for the mortality at 0.05 ppm in assay [1] (Table 5f) and in assay [1] (Table 5g) were 17.1% and 23.4%, respectively. Further, the mortality at 0.18 ppm in assay [1] (5 h, Table 5h) came to 57.5%; in assay [1] (120 h, Table 5d) it was 31.4%; in assay [1] (Table 5a), 31.4%; in assay [1] (Table 5b) it was 31.4%; in assay [1] (Table 5c), 80%; in assay [1] (Table 5e) it was 37%. The mortality at 0.18 ppm in assay [1] (Table 5f) was 37.2%; in assay [1] (Table 5g), 38.3%. The mortality at 50 ppm is 0% in assay [2] (96 h, Table 4d) and 7.3% in assay [2] (Table 4e). The mortality at 250 ppm worked out at 54.1% in assay [2] (96 h, Table 4d) and 22.4% in assay [2] (Table 4e).
Regarding `CC(C)(CS(C)(=O)=O)NC(=O)c1ccc(F)c2nn(-c3cccnc3)cc12` [Cpd 3, N-[1,1-dimethyl-2-(methylsulfonyl)ethyl]-7-fluoro-2-(3-pyridinyl)-2H-indazole-4-carboxamide], the mortality at 0.02 ppm turned out to be 37.4% in assay [1] (5 h, Table 5h); 20% in assay [1] (120 h, Table 5d); 20% in assay [1] (Table 5a); 20% in assay [1] (Table 5b); 0% in assay [1] (Table 5c); 19.9% in assay [1] (Table 5e). Moreover, the mortality at 0.02 ppm in assay [1] (Table 5f) was determined as 17.6%; in assay [1] (Table 5g), 15.8%. The mortality at 0.08 ppm in assay [1] (5 h, Table 5h) stood at 43.5%; in assay [1] (120 h, Table 5d) it was 43.2%; in assay [1] (Table 5a), 43.2%; in assay [1] (Table 5b) it was 43.2%; in assay [1] (Table 5c), 20%; in assay [1] (Table 5e) it was 31.1%. Also, the mortality at 0.08 ppm in assay [1] (Table 5f) turned out to be 39%; in assay [1] (Table 5g), 30.6%. Besides, the mortality at 50 ppm in assay [2] (96 h, Table 4d) stood at 8.3%; in assay [2] (Table 4e) it was 5%. Moreover, the mortality at 250 ppm in assay [2] (96 h, Table 4d) was determined as 0%; in assay [2] (Table 4e), 1.2%.
